Laboratory results published in patent US11434225B2, “Salts and solid state forms of plinabulin” (PLIVA HRVATSKA D.O.O., priority 2017, dated 2022).

Conditions: solid state form

For `CC(C)(C)c1[nH]cnc1/C=c1\[nH]c(=O)/c(=C/c2ccccc2)[nH]c1=O` [Plinabulin Form G], the “stability upon exposure to humidity” value (upon exposure to humidity) was “shows stability” and the stability upon heating (upon heating) was “shows stability”.
